Reference: article PMC2747815 (Journal of immunotherapy (Hagerstown, Md. : 1997), 2009)

B1: OVA: recombinant full-length OVA protein purchased from Sigma, control protein (protein, UniProt P01012 1-386, looked up)
chain: MGSIGAASMEFCFDVFKELKVHHANENIFYCPIAIMSALAMVYLGAKDSTRTQINKVVRFDKLPGFGDSIEAQCGTSVNVHSSLRDILNQITKPNDVYSFSLASRLYAEERYPILPEYLQCVKELYRGGLEPINFQTAADQARELINSWVESQTNGIIRNVLQPSSVDSQTAMVLVNAIVFKGLWEKAFKDEDTQAMPFRVTEQESKPVQMMYQIGLFRVASMASEKMKILELPFASGTMSMLVLLPDEVSGLEQLESIINFEKLTEWTSSNVMEERKIKVYLPRMKMEEKYNLTSVLMAMGITDVFSSSANLSGISSAESLKISQAVHAAHAEINEAGREVVGSAEAGVDAASVSEEFRADHPFLFCIKHIATNAVLFFGRCVSP
modifications: full-length

Columns and labels:
[1] = system: LN cells of TRP1-/-//DR4+ (KO) and TRP1+/-//DR4+ (WT) mice, antigen pulsed onto DR4+ 1088 EBV-B; assay: Ex vivo IFN-γ ELISPOT of LN cells from hTRP-1-immunized KO and WT mice; format: cell-based, mouse; conditions: for T cell frequency by ex vivo IFN-γ ELISPOT titration (mean): peptide 100 μM, Fig. 2D; for ex vivo ELISPOT reactivity, KO-derived compared with WT-derived CD4+ T cells: peptide 100 μM or protein 50 μg/ml pulsed onto 1088 EBV-B, 24 hours
HLA-DR4 (HLA-DRB1*0401) = HLA-DR4 (HLA-DRB1*0401) (Homo sapiens, UniProt P01903+P01911, A100K/A169T/F76Y/I96L/K127E/L162R/M171V/N62H/P40V/Q125Y/R42H/S133A/S149N/S66Y/V115G/V209L/W38E); conditions: competitive binding assay, purified class II, 48h in PBS with NP40; Fig. 1B
[2] = system: LN cells of DR4 Tg mice, antigen pulsed onto DR4+ 1088 EBV-B; assay: IFN-γ ELISA of expanded LN T cells from mTRP-1-immunized DR4 Tg mice; format: cell-based, mouse; conditions: protein pulsed onto DR4+ 1088 EBV-B at 25 μg/ml; compared with mTRP-1 protein

Molecule	T cell frequency by ex vivo IFN-γ ELISPOT titration (mean) ([1]; TRP1+/-//DR4+ (WT) LN cells)	T cell frequency by ex vivo IFN-γ ELISPOT titration (mean) ([1]; TRP1-/-//DR4+ (KO) LN cells)	relative affinity (IC50), human variant compared with murine counterpart (HLA-DR4 (HLA-DRB1*0401))	ex vivo ELISPOT reactivity, KO-derived compared with WT-derived CD4+ T cells [1]	specific IFN-γ secretion by ELISA, protein [2]
hTRP-1_277-297: HLA-DRB1*0401-restricted epitope from human TRP-1, positions 277-297 (ISPNSVFSQWRVVCDSLEDYD; UniProt P17643 277-297, looked up, fragment)	158	163	nearly three times less	–	–
hTRP-1 protein: recombinant human TRP-1 protein	–	–	–	significantly greater	superior
mTRP-1 protein: recombinant murine TRP-1 protein	–	–	–	significantly greater	–
B1	–	–	–	–	No significant immune response
